# What was measured:
# [1] = test system: intestinal bacteria recovered from conventional mouse small intestine; test: Flow cytometry binding to intestinal bacteria; details: 30 μM conjugate, 40 minutes on ice, formaldehyde-fixed bacteria
# Listeria monocytogenes = test: Bactericidal activity after N-terminal cleavage with trypsin; assay type: cell-based; details: 5 μM protein, 2 hours at 37° C., L. monocytogenes
# Experimental: Eleven amino acids were truncated from the N-terminus HIP/PAP resulting in increase bactericidal activity.
# Purified recombinant HIP/PAP was cleaved by the addition of bovine trypsin (Sigma) in a 1:200 molar ratio (trypsin:HIP/PAP). After 2 hours incubation at 37° C., 5 μM trypsin-treated HIP/PAP or uncleaved recombinant HIP/PAP was added to Listeria monocytogenes that had been grown to mid-log phase in brain-heart infusion (BHI) broth and resuspended in 25 mM MES pH 6, 25 mM NaCl. Initial bacterial concentrations ranged from 10^5 to 10^6 CFU/ml. After incubation for 2 hours at 37° C., viable bacteria were quantitated by dilution plating on BHI agar plates.
substance,measurement,setting,value
"BSA-AlexaFluor555: AlexaFluor555-labeled BSA, control for flow cytometry binding to intestinal bacteria",binding of AlexaFluor555 conjugate to intestinal bacteria (flow cytometry),[1],no binding
"trypsin-treated HIP/PAP: recombinant HIP/PAP cleaved with bovine trypsin, 11 amino acids removed from the N-terminus",bactericidal activity with or without N-terminal truncation (11 amino acids),Listeria monocytogenes,increased bactericidal activity

# — patent publication US8212007B2, “Expression and purification of HIP/PAP and uses therefor” (priority 2007, dated 2012)
